Tests used:
Assay type in all cases: in vivo
Staphylococcus aureus = test: Residual biocidal effect of skin associated iodine, colony counts from inoculated treated skin; conditions: 320 ppm saturated molecular iodine solution, 30 second contact; inoculated two hours after contact, sampled ninety minutes after inoculation
Procedure: 5. […] […] […] […] The samples were contacted with the arm for 30 seconds. After contact the treated arm was flushed with water for 15 seconds and dried.
[…] Two hours after contact each area was inoculated with […] of a 1:100 dilution of a 48 hour soy-trypticase culture of Staphylococcus aureus. Ninety minutes after inoculation the mouths of sterile 25 mL flasks filled with 2 mL of soy-trypticase with 2% Tween 80 were placed over the marked skin areas. The flasks were gently shaken for 1 minute and a colony count was performed on blood agar plates after incubation at 37° C. for 48 hours. The residual biocidal effect from skin associated molecular iodine was determined by subtracting the log of the colony counts from the areas of skin that were contacted with iodine from the controls (log colony count from untreated skin). The average difference in colony counts between treated and untreated skin was 2.4 logs.

Human Skin = test: Diffusion of iodine from skin post application (DPD absorbance at 553 nm); conditions: average of three subjects
Procedure: 2. Three samples from Example 1 were used to confirm that molecular iodine will penetrate into skin and remain in the skin for a prolonged time period.
Application of the iodine solution onto skin was performed as described in Example 1 above with the exception that the contacted area was flushed with water for 15 seconds immediately after following contact between the iodine solution and skin. The method of Goftardi (J. Hosp. Infect., 1995, Vol 29, pages 9-18) were used to measure the amount of molecular iodine coming out of the skin. Briefly, 1 mL of a diethyl-p-phenylenediamine (DPD) solution was placed concentrically onto the exposed area of skin and left there for 30 seconds. This solution was then transferred to a 1 cm cuvette and the absorbance was read at 553 nm. Control values were obtained by contacting the DPD solution to an unexposed area on the forearm of each subject. Control values were subtracted from the experimental measurements. Iodine solutions containing 50 ppm, 150 ppm and 300 ppm of molecular iodine were used for this example. Two measurements were made (one measurement of each forearm) at each iodine concentration on all three subjects.

Candida albicans = test: Residual biocidal effect of skin associated iodine, repeated experiment; conditions: saturated molecular iodine solution (320 ppm)

II [Molecular Iodine, molecular iodine]
Average difference in colony counts between treated and untreated skin (Staphylococcus aureus): 2.4 logs
Mean absorbance (DPD, 553 nm), iodine diffusing from skin (Human Skin; 50 ppm I2, 3 minutes after application): 0.06
Mean absorbance (DPD, 553 nm), iodine diffusing from skin (Human Skin; 50 ppm I2, 6 minutes after application): 0.17
Mean absorbance (DPD, 553 nm), iodine diffusing from skin (Human Skin; 50 ppm I2, 20 minutes after application): 0.19
Mean absorbance (DPD, 553 nm), iodine diffusing from skin (Human Skin; 50 ppm I2, 60 minutes after application): 0.18
Mean absorbance (DPD, 553 nm), iodine diffusing from skin (Human Skin; 50 ppm I2, 90 minutes after application): 0.13
Mean absorbance (DPD, 553 nm), iodine diffusing from skin (Human Skin; 50 ppm I2, 120 minutes after application): 0.08
Mean absorbance (DPD, 553 nm), iodine diffusing from skin (Human Skin; 50 ppm I2, 240 minutes after application): 0.06
Mean absorbance (DPD, 553 nm), iodine diffusing from skin (Human Skin; 50 ppm I2, 660 minutes after application): 0.02
Mean absorbance (DPD, 553 nm), iodine diffusing from skin (Human Skin; 150 ppm I2, 3 minutes after application): 0.32
Mean absorbance (DPD, 553 nm), iodine diffusing from skin (Human Skin; 150 ppm I2, 6 minutes after application): 0.31
Mean absorbance (DPD, 553 nm), iodine diffusing from skin (Human Skin; 150 ppm I2, 20 minutes after application): 0.48
Mean absorbance (DPD, 553 nm), iodine diffusing from skin (Human Skin; 150 ppm I2, 60 minutes after application): 0.53
Mean absorbance (DPD, 553 nm), iodine diffusing from skin (Human Skin; 150 ppm I2, 90 minutes after application): 0.50
Mean absorbance (DPD, 553 nm), iodine diffusing from skin (Human Skin; 150 ppm I2, 120 minutes after application): 0.46
Mean absorbance (DPD, 553 nm), iodine diffusing from skin (Human Skin; 150 ppm I2, 240 minutes after application): 0.36
Mean absorbance (DPD, 553 nm), iodine diffusing from skin (Human Skin; 150 ppm I2, 660 minutes after application): 0.20
Mean absorbance (DPD, 553 nm), iodine diffusing from skin (Human Skin; 300 ppm I2, 3 minutes after application): 0.78
Mean absorbance (DPD, 553 nm), iodine diffusing from skin (Human Skin; 300 ppm I2, 6 minutes after application): 0.65
Mean absorbance (DPD, 553 nm), iodine diffusing from skin (Human Skin; 300 ppm I2, 20 minutes after application): 1.11
Mean absorbance (DPD, 553 nm), iodine diffusing from skin (Human Skin; 300 ppm I2, 60 minutes after application): 0.93
Mean absorbance (DPD, 553 nm), iodine diffusing from skin (Human Skin; 300 ppm I2, 90 minutes after application): 0.77
Mean absorbance (DPD, 553 nm), iodine diffusing from skin (Human Skin; 300 ppm I2, 120 minutes after application): 0.64
Mean absorbance (DPD, 553 nm), iodine diffusing from skin (Human Skin; 300 ppm I2, 240 minutes after application): 0.57
Mean absorbance (DPD, 553 nm), iodine diffusing from skin (Human Skin; 300 ppm I2, 660 minutes after application): 0.40
Residual biocidal efficacy on skin (Candida albicans): Efficacy was also demonstrated
